From PubChem BioAssay (NCI)
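Protocol summary: plate cells (96-well), add compound at 5 concentrations, incubate 48 h, interpolate endpoints linearly. Abbreviation: GI50, concentration required for 50% inhibition of growth. TGI is the concentration that stops growth completely.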

Assays:
Assay in all cases: NCI-60 cell line screen, 48 h
[1] = system: NCI-H23 lung
[2] = system: NCI-H226 lung
[3] = system: ACHN renal
[4] = system: CAKI-1 renal
[5] = system: SNB-19 CNS
[6] = system: HOP-62 NSCLC
[7] = system: OVCAR-5 ovarian
[8] = system: A498 renal
[9] = system: 786-0 renal
[10] = system: RXF 393 renal

SMILES | TGI [1] [µM] | TGI [2] [µM] | TGI [3] [µM] | TGI [4] [µM] | TGI [5] [µM] | TGI [6] [µM] | TGI [7] [µM] | TGI [8] [µM] | TGI [9] [µM] | TGI [10] [µM] | GI50 [8] [µM] | GI50 [1] [µM] | GI50 [2] [µM] | GI50 [3] [µM] | GI50 [4] [µM] | GI50 [5] [µM] | GI50 [6] [µM] | GI50 [7] [µM] | GI50 [9] [µM] | GI50 [10] [µM]
CCC(=O)OCOc1ccc(/C=C2\CCC(CN(C)C)C2=O)cc1 (stereo unspecified) | 15.8 | 31.8 | 20.4 | 11.5 | 32.5 | 33.5 | 31.6 | 30.6 | 6.2 | 9.55 | – | – | – | – | – | – | – | – | – | –
COC(=O)C1=C(C)NC(=S)NC1c1ccc(N(CCCl)CCCl)cc1Cl (stereo unspecified) | > 62.1 | > 45.7 | > 75.9 | 14.6 | > 100 | > 100 | > 100 | > 100 | > 100 | > 81.2 | 46.9 | – | – | – | – | – | – | – | – | –
C=C1C(=O)O[C@@H]2/C=C(/C)[C@@H](OC(C)=O)C[C@@H](O)/C(C)=C\[C@@H](OC(=O)[C@]3(C)O[C@@H]3C)[C@@H]12 | 35.6 | > 100 | 26.8 | 11.1 | > 100 | > 100 | 32.6 | 32.3 | 15.8 | 29.3 | – | – | – | – | – | – | – | – | – | –
CCO/C=C\C12CCCC1NC(c1ccccc1)(c1ccccc1)O2 (stereo unspecified) | 80.2 | > 100 | 92.5 | 65.6 | > 100 | > 100 | 37 | > 100 | > 100 | 81.3 | – | – | – | – | – | – | – | – | – | –
CC1=C(CCC(C)CO)O[C@H]2C[C@H]3[C@@H]4CC[C@H]5C[C@@H](O)CC[C@]5(C)[C@H]4CC(=O)[C@]3(C)[C@@H]12 (stereo partly specified) | 36.6 | > 82.2 | > 69.7 | 86.3 | 55.5 | 38.3 | 71.1 | 44 | 52.4 | 73.8 | – | – | – | – | – | – | – | – | – | –
Nc1ccc(C#Cc2ccccc2C#CCCCCO)cc1 | 35.1 | 40.5 | 27.5 | 40.4 | 31.3 | 28.7 | 31.3 | 42.1 | 27.5 | 20.5 | 19.8 | 18.2 | 17.5 | 14.5 | 20.9 | 17.5 | 15.2 | 16.4 | 13.8 | 4.69
CCN1CCN(C(=O)[C@]23CC[C@@H](C)[C@H](C)[C@@H]2C2=CC[C@@H]4[C@@]5(C)CCC(=O)C(C)(C)[C@@H]5CC[C@@]4(C)[C@]2(C)CC3)CC1 | 2.9 | 7.01 | 4.38 | 2.96 | 1.72 | 3.09 | 1.87 | 2.42 | 1.7 | 1.74 | 0.927 | 1.08 | 1.78 | 1.33 | 0.946 | 0.849 | 1.38 | 0.907 | 0.814 | 0.822
Cc1ccsc1C(NC(=O)c1ccccc1)c1cc(Cl)c2cccnc2c1O (stereo unspecified) | 17.5 | 7.35 | 11.2 | 14.9 | 15.7 | 5.68 | 42 | 7.29 | 11.4 | 6.08 | 0.936 | 0.65 | 1.4 | 0.45 | 0.495 | 0.394 | 0.471 | 2.67 | 1.19 | 1.77
